Read-outs that look alike come from different tables or passages of the source.
Columns and labels:
FIPV M^pro [1] = biological target: T1, FIPV M^pro (Feline coronavirus, UniProt Q98VG9); test: FRET-based cleavage assay with purified FIPV Mpro (Ki and IC50 determination); format: biochemical, FIPV WSU-79/1146
Protocol: A fluorescence resonance energy transfer (FRET)–based cleavage assay was performed using a synthetic peptide fluorescent substrate containing the cleavage site of FIPV M^pro [Abz-SVTLQ↓SG-Tyr (NO2)-R] as described previously ([Vuong et al., 2020]; [Vuong et al., 2021]). […] The enzymatic reactions using 1–500 μM of FRET substrate in activity buffer (25 mM Bis-Tris, 1 mM DTT, pH 7.0) were started with the addition of protease. For IC50 determination, 100 nM of FIPV M^pro was incubated with an inhibitor concentration range of 0.25 nM–100 µM in activity buffer. The reaction was started with 40 µM of FRET substrate. The fluorescence signal of the FRET peptide cleavage product was monitored at an emission wavelength of 420 nm with excitation at 320 nm, using a Cytation 5 Imaging Multi-Mode Reader (BioTek) for 7 min at 37°C. The kinetic data were analyzed using computer-fit calculation (Prism 9.0, GraphPad Software). […] The experiments were performed in triplicate.

SARS-CoV-2 M^pro = details: read-out: SARS-CoV-2 M^pro IC50; mean ± SEM, n = 3; ref Vuong et al. (2021); cited from earlier work
SARS-CoV M^pro = details: ref Arutyunova et al., 2021; cited from earlier work
FIPV M^pro [2] = biological target: T1, FIPV M^pro; parameters: method as in Kim et al., 2012; details: ref Kim et al., 2012; cited from earlier work
FIP virus (FIPV) = tested on: FIP virus (FIPV); parameters: method as in Kim et al., 2016; Pedersen et al., 2018; details: experimentally induced and naturally occurring FIP; ref Kim et al., 2016; Pedersen et al., 2018; cited from earlier work
[3] = biological target: Feline infectious peritonitis virus main protease (FIPV M^pro, FIPV WSU-79/1146) (feline infectious peritonitis virus (FIPV WSU-79/1146)); test: crystal structure; FIPV M^pro at 10 mg/ml incubated with 5x molar excess of GC373 or GC376 (4°C, 2 h), sitting drop, room temperature; GC376: 2.0 M ammonium sulfate, 0.1 M Bis-Tris pH 5.5; GC373: 0.2 M calcium chloride, 0.1 M MES, 20% PEG 6000, pH 6.0

T1 sequence (Q98VG9 2904-3205): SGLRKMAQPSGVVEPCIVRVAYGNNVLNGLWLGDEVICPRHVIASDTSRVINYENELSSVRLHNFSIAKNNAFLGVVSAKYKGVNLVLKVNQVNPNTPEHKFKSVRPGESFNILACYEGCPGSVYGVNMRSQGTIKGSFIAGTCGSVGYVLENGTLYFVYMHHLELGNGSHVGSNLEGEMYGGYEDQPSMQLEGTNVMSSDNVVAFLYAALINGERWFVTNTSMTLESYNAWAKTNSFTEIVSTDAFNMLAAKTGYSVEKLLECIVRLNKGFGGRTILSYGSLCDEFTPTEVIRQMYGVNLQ

Compound | IC50 (FIPV M^pro [1]) | IC50 (SARS-CoV-2 M^pro) | also measured
O=C[C@H](C[C@@H]1CCNC1=O)NC(=O)[C@H](CC1CC1)NC(=O)OCc1ccccc1 [1a] | 100 ± 70 nM |  | 
CC(C)C[C@H](NC(=O)OCc1cccc(F)c1)C(=O)N[C@H](C=O)C[C@@H]1CCNC1=O [1d] | 70 ± 10 nM | 130 ± 40 nM | 
CC(C)C[C@H](NC(=O)OCCc1cccc(Cl)c1)C(=O)N[C@H](C=O)C[C@@H]1CCNC1=O [1e] | 130 ± 20 nM | 150 ± 50 nM | 
CC(C)C[C@H](NC(=O)O[C@@H](C)c1ccccc1)C(=O)N[C@H](C=O)C[C@@H]1CCNC1=O [1g] | 430 ± 90 nM | 270 ± 90 nM | 
O=C(N[C@@H](CC1CC1)C(=O)N[C@@H](C[C@@H]1CCNC1=O)C(O)S(=O)(=O)O)OCc1cccc(F)c1 (some centres unmarked) [2c] | 30 ± 10 nM | 70 ± 10 nM | 
O=C(N[C@@H](CC1CC1)C(=O)N[C@@H](C[C@@H]1CCNC1=O)C(O)S(=O)(=O)O)OCCc1cccc(Cl)c1 (some centres unmarked) [2d] | 50 ± 20 nM |  | 
COc1cccc2[nH]c(C(=O)N[C@@H](CC3CC3)C(=O)N[C@@H](C[C@@H]3CCNC3=O)C(O)S(=O)(=O)O)cc12 (some centres unmarked) [2e] | 60 ± 20 nM |  | 
CC(C)CC(NC(=O)OCc1ccccc1)C(=O)NC(C=O)CC1CCNC1=O (centres unmarked) [GC373] |  |  | Ki against SARS-CoV Mpro (in words) (SARS-CoV M^pro): nanomolar range
CC(C)CC(NC(=O)OCc1ccccc1)C(=O)NC(CC1CCNC1=O)C(O)S(=O)(=O)O (centres unmarked) [GC376, reference compound] |  |  | IC50 (FIPV M^pro [1]; 100 nM FIPV Mpro, 40 µM FRET substrate, 37°C, mean ± SEM, n = 3, read-out: FIPV M^pro IC50): 130 ± 20 nM; Ki (FIPV M^pro [1]; read-out: Calculated Ki): 2.1 nM; IC50 against FIPV Mpro (in words) (FIPV M^pro [2]): sub-micromolar; Effect on progression of FIP in cats (FIP virus (FIPV)): successful in reversing the progression
Feline infectious peritonitis virus main protease (FIPV M^pro, FIPV WSU-79/1146) (enzyme) |  |  | stoichiometry N [3]: 2
